From patent US11369565B2, “Amino-pyrimidine skeletal muscle modulators” (Cytokinetics, Inc., priority 2010, dated 2022)

System: rabbit skeletal myofibrils (approximately 90% fast fibers)
Assay: Activation of fast skeletal myofibrils (PUMA coupled-enzyme ATPase assay at pCa25)
Type: biochemical
Details: concentration at which the compound increased the enzymatic activity by 40%; calcium at pCa25; PM12 buffer pH 6.8
Summary of the method: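 Detergent-washed rabbit psoas myofibrils tested at calcium giving 25% of maximal rate (pCa25). ATPase activity tracked by pyruvate kinase/lactate dehydrogenase coupling, NADH oxidation read as absorbance at 340 nm, in PM12 buffer (12 mM Pipes, 2 mM MgCl2, 1 mM DTT, pH 6.8).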

| SMILES | Mean AC1.4 |
| --- | --- |
| CCOC(=O)c1csc(-c2cnc(NCC3(c4ncccc4F)CCC3)nc2)n1 [ethyl 2-[2-({[(3-fluoro-2-pyridyl)cyclobutyl]methyl}amino)pyrimidin-5-yl]-1,3-thiazole-4-carboxylate] | D (D=>20 uM) |
| CCOC(=O)c1cc(-c2cnc(NC(C)(C)c3ncccc3Cl)nc2)no1 [ethyl 3-(2-{[1-(3-chloro(2-pyridyl))-isopropyl]amino}pyrimidin-5-yl)isoxazole-5-carboxylate] | D (D=>20 uM) |
| CCOC(=O)c1noc(-c2cnc(NC(C)(C)c3ncccc3Cl)nc2)n1 [ethyl 5-(2-{[1-(3-chloro(2-pyridyl))-isopropyl]amino}pyrimidin-5-yl)-1,2,4-oxadiazole-3-carboxylate] | D (D=>20 uM) |
| CCOC(=O)c1nnc(-c2cnc(NC(C)(C)c3ncccc3Cl)nc2)o1 [ethyl 5-(2-{[1-(3-chloro(2-pyridyl))-isopropyl]amino}pyrimidin-5-yl)-1,3,4-oxadiazole-2-carboxylate] | D (D=>20 uM) |
| COC(=O)c1ccn(-c2cnc(NC[C@]3(c4ncccc4F)C[C@H](F)C3)nc2)c1 [methyl 1-[2-({[3-fluoro-1-(3-fluoro(2-pyridyl))cyclobutyl]methyl}amino)pyrimidin-5-yl]pyrrole-3-carboxylate] | D (D=>20 uM) |
| COC(=O)Cc1ccc(F)c(-c2cnc(NC(C)(C)c3ncccc3F)nc2)c1 [methyl 2-[4-fluoro-3-(2-{[1-(3-fluoro(2-pyridyl))-isopropyl]amino}pyrimidin-5-yl)phenyl]acetate] | C (C=10-20 uM) |
| COC(=O)c1cnc(NCC(C)(C)c2ccc(F)cc2)nc1 [methyl 2-{[2-(4-fluorophenyl)-2-methylpropyl]amino}pyrimidine-5-carboxylate] | D (D=>20 uM) |
| COC(=O)CNC(=O)c1cnc(NCC2(c3ncccc3F)CCC2)nc1 [methyl 2-{[2-({[(3-fluoro-2-pyridyl)cyclobutyl]methyl}amino)pyrimidin-5-yl]carbonylamino} acetate] | D (D=>20 uM) |
| COC(=O)c1nc(-c2cnc(NC(C)(C)c3ncccc3Cl)nc2)cn1C [methyl 4-(2-{[1-(3-chloro(2-pyridyl))-isopropyl}amino}pyrimidin-5-yl)-1-methylimidazole-2-carboxylate] | D (D=>20 uM) |
| COC(=O)c1cc(-c2cnc(NC(C)(C)c3ncccc3Cl)nc2)ncn1 [methyl 6-(2-{[1-(3-chloro(2-pyridyl))-isopropyl]amino}pyrimidin-5-yl)pyrimidine-4-carboxylate] | D (D=>20 uM) |
| CNC(=O)c1ccn(-c2cnc(NC[C@]3(c4ncccc4F)C[C@H](F)C3)nc2)c1 [{1-[2-({[3-fluoro-1-(3-fluoro(2-pyridyl))cyclobutyl]methyl}amino)pyrimidin-5-yl]pyrro1-3-yl}-N-methylcarboxamide] | B (B=1-10 uM) |
| CC(C)(Nc1nccc(-c2nccs2)n1)c1cccc(OC(F)F)n1 [{1-[6-(difluoromethoxyl)(2-pyridyl)]-isopropyl)(4-(1,3-thiazol-2-yl)]pyrimidin-2-yl)amine] | C (C=10-20 uM) |
| CNC(=O)c1ccnc(-c2cnc(NC[C@]3(c4ncccc4F)C[C@H](F)C3)nc2)n1 [{2-[2-({[3-fluoro-1-(3-fluoro(2-pyridyl))cyclobutyl]methyl}amino)pyrimidin-5-yl]pyrimidin-4-yl}-N-methylcarboxamide] | B (B=1-10 uM) |
| CNC(=O)c1cccc(-c2cnc(NCC3(c4ncccc4F)CCC3)nc2)c1 [{3-[2-({[(3-fluoro(2-pyridyl))cyclobutyl]methyl)amino)pyrimidin-5-yl]phenyl}-N-methylcarboxamide] | B (B=1-10 uM) |
| CC(C)(Nc1ncc(-c2nc(CN)cs2)cn1)c1ncccc1F [{5-[4-(aminomethyl)(1,3-thiazol-2-yl)]pyrimidin-2-yl}[1-(3-fluoro(2-pyridyl))-isopropyl]amine] | D (D=>20 uM) |
| CC(C)(Nc1ncc(-c2ncc(CN)s2)cn1)c1ncccc1Cl [{5-[5-(aminomethyl)(1,3-thiazol-2-yl)]pyrimidin-2-yl}[1-(3-chloro(2-pyridyl))-isopropyl]amine] | D (D=>20 uM) |
| CC(C)(Nc1ncc(-c2ncc(CN)s2)cn1)c1ncccc1F [{5-[5-(aminomethyl)(1,3-thiazol-2-yl)]pyrimidin-2-yl}[1-(3-fluoro(2-pyridyl))-isopropyl]amine] | D (D=>20 uM) |
| NCc1cnc(-c2cnc(NCC3(c4ncccc4Cl)CCC3)nc2)s1 [{5-[5-(aminomethyl)(1,3-thiazol-2-yl)]pyrimidin-2-yl}{[3-chloro(2-pyridyl))cyclobutyl]methyl)amine] | B (B=1-10 uM) |
| NCc1cnc(-c2cnc(NCC3(c4ncccc4F)CCC3)nc2)s1 [{5-[5-(aminomethyl)(1,3-thiazol-2-yl)]pyrimidin-2-yl}{[(3-fluoro(2-pyridyl))cyclobutyl]methyl}amine] | C (C=10-20 uM) |
| O=C(Nc1cnc(NCC2(c3ncccc3F)CCC2)nc1)Nc1nccs1 [{[2-({[(3-fluoro(2-pyridyl))cyclobutyl]methyl}amino)pyrimidin-5-yl]amino}-N-(1,3-thiazol-2-yl)carboxamide] | B (B=1-10 uM) |

The next lines start with the values.

| Mean AC1.4 | SMILES |
| --- | --- |
| A (A=<1 uM) | COC(=O)c1ccc(O)c(-c2cnc(NC[C@]3(c4ncccc4F)C[C@H](F)C3)nc2)c1 [methyl 3-[2-({[3-fluoro-1-(3-fluoro(2-pyridyl))cyclobutyl]methyl)amino)pyrimidin-5-yl]-4-hydroxybenzoate] |
| B (B=1-10 uM) | CNC(=O)c1ccnc(-c2cnc(NC[C@]3(c4ncccc4F)C[C@H](F)C3)nc2)c1 [{2-[2-({[3-fluoro-1-(3-fluoro(2-pyridyl))cyclobutyl]methyl}amino)pyrimidin-5-yl](4-pyridyl)}-N-methylcarboxamide] |
| B (B=1-10 uM) | O=C(NC1CC(O)C1)c1cccc(-c2cnc(NC[C@]3(c4ncccc4F)C[C@H](F)C3)nc2)c1 (some centres unmarked) [{3-[2-(([3-fluoro-1-(3-fluoro(2-pyridyl))cyclobutyl]methyl}amino)pyrimidin-5-yl]phenyl}-N-(3-hydroxycyclobutyl)carboxamide] |
| B (B=1-10 uM) | CNC(=O)c1cccc(-c2cnc(NC[C@]3(c4ncccc4F)C[C@H](F)C3)nc2)c1O [{3-[2-({[3-fluoro-1-(3-fluoro(2-pyridyl))cyclobutyl]methyl}amino)pyrimidin-5-yl]-2-hydroxyphenyl}-N-methylcarboxamide] |
| A (A=<1 uM) | CNC(=O)c1ccc(O)c(-c2cnc(NC[C@]3(c4ncccc4F)C[C@H](F)C3)nc2)c1 [{3-[2-({[3-fluoro-1-(3-fluoro(2-pyridyl))cyclobutyl]methyl}amino)pyrimidin-5-yl]-4-hydroxyphenyl}-N-methylcarboxamide] |
| A (A=<1 uM) | CN1CC(NC(=O)c2cccc(-c3cnc(NC[C@]4(c5ncccc5F)C[C@H](F)C4)nc3)c2)C1 [{3-[2-({[3-fluoro-1-(3-fluoro(2-pyridyl))cyclobutyl]methyl}amino)pyrimidin-5-yl]phenyl}-N-(1-methylazetidin-3-yl)carboxamide] |
| A (A=<1 uM) | CS(=O)(=O)NC(=O)c1cccc(-c2cnc(NCC3(c4ncccc4F)CC(F)C3)nc2)c1 (centres unmarked) [{3-[2-({[3-fluoro-1-(3-fluoro(2-pyridyl))cyclobutyl]methyl}amino)pyrimidin-5-yl]phenyl}-N-(methylsulfonyl)carboxamide] |
| B (B=1-10 uM) | CS(=O)(=O)N1CC(NC(=O)c2cccc(-c3cnc(NC[C@]4(c5ncccc5F)C[C@H](F)C4)nc3)c2)C1 [{3-[2-({[3-fluoro-1-(3-fluoro(2-pyridyl))cyclobutyl]methyl}amino)pyrimidin-5-yl]phenyl}-N-[1-(methylsulfonyl)azetidin-3-yl]carboxamide] |
| B (B=1-10 uM) | CNC(=O)c1cccc(-c2cnc(NC[C@]3(c4ncccc4F)C[C@H](F)C3)nc2)c1 [{3-[2-({[3-fluoro-1-(3-fluoro(2-pyridyl))cyclobutyl]methyl}amino)pyrimidin-5-yl]phenyl}-N-methylcarboxamide] |
| B (B=1-10 uM) | CNC(=O)c1ccc(O)c(-c2cnc(NCC3(c4ncccc4F)CCC3)nc2)c1 [{3-[2-({[(3-fluoro(2-pyridyl))cyclobutyl]methyl}amino)pyrimidin-5-yl]-4-hydroxyphenyl}-N-methylcarboxamide] |
| A (A=<1 uM) | O=C(NC1CC(O)C1)c1ccc(F)c(-c2cnc(NC[C@]3(c4ncccc4F)C[C@H](F)C3)nc2)c1 (some centres unmarked) [{4-fluoro-3-[2-({[3-fiuoro-1-(3-fluoro(2-pyridyl))cyclobutyl]methyl}amino)pyrimidin-5-yl]phenyl}-N-(3-hydroxycyclobutyl)carboxamide] |
| 6 µM | CS(=O)(=O)N1CC(NC(=O)c2ccc(F)c(-c3cnc(NC[C@]4(c5ncccc5F)C[C@H](F)C4)nc3)c2)C1 [{4-fluoro-3-[2-({[3-fluoro-1-(3-fluoro(2-pyridyl))cyclobutyl)]methyl}amino)pyridin-5-yl]phenyl}-N-[1-(methylsulfonyl)azetidin-3-yl]carboxamide] |
| B (B=1-10 uM) | CN1CC(NC(=O)c2ccc(F)c(-c3cnc(NC[C@]4(c5ncccc5F)C[C@H](F)C4)nc3)c2)C1 [{4-fluoro-3-[2-({[3-fluoro-1-(3-fluoro(2-pyridyl))cyclobutyl]methyl}amino)pyrimidin-5-yl]phenyl}-N-(1-methylazetidin-3-yl)carboxamide] |
| A (A=<1 uM) | CNC(=O)c1ccc(F)c(-c2cnc(NC[C@]3(c4ncccc4F)C[C@H](F)C3)nc2)c1 [{4-fluoro-3-[2-({[3-fluoro-1-(3-fluoro(2-pyridyl))cyclobutyl]methyl}amino)pyrimidin-5-yl]phenyl}-N-methylcarboxamide] |
| B (B=1-10 uM) | CNC(=O)c1ccc(F)c(-c2cnc(NCC3(c4ncccc4F)CCC3)nc2)c1 [{4-fluoro-3-[2-({[(3-fluoro(2-pyridyl))cyclobutyl]methyl}amino)pyrimidin-5-yl]phenyl}-N-methylcarboxamide] |
